Data taken from PubChem BioAssay (NCI).
Values joined by “and” are separate entries in the source; they are usually repeats but may differ in a detail not shown here. Equal entries are not always repeated.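 How tested: cells in 96-well plates exposed to compound for 48 hours at five concentrations. GI50 = concentration required for 50% inhibition of growth. Definition used: TGI = concentration required for complete inhibition of growth.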

Tests used:
Test in all cases: inhibition of tumour cell growth, NCI panel, 48 h
A549 NSCLC = system: A549 NSCLC
HOP-62 NSCLC = system: HOP-62 NSCLC
HOP-92 NSCLC = system: HOP-92 NSCLC
MDA-MB-435 = system: MDA-MB-435
OVCAR-5 ovarian = system: OVCAR-5 ovarian
SF-268 CNS = system: SF-268 CNS
SK-OV-3 ovarian = system: SK-OV-3 ovarian
SR leukemia = system: SR leukemia
SW-620 colon = system: SW-620 colon
RPMI-8226 leukemia = system: RPMI-8226 leukemia

Structure (SMILES) | TGI (A549 NSCLC) | TGI (HOP-62 NSCLC) | TGI (HOP-92 NSCLC) | TGI (MDA-MB-435) | TGI (OVCAR-5 ovarian) | TGI (SF-268 CNS) | TGI (SK-OV-3 ovarian) | TGI (SR leukemia) | TGI (SW-620 colon) | GI50 (A549 NSCLC) | GI50 (HOP-62 NSCLC) | GI50 (HOP-92 NSCLC) | GI50 (MDA-MB-435) | GI50 (OVCAR-5 ovarian) | GI50 (RPMI-8226 leukemia) | TGI (RPMI-8226 leukemia) | GI50 (SK-OV-3 ovarian) | GI50 (SR leukemia) | GI50 (SW-620 colon) | GI50 (SF-268 CNS)
CN(CCNC(=S)c1cn(C)c2c1ccc1ccccc12)CCNC(=S)c1cn(C)c2c1ccc1ccccc12 | > 100 µM | > 100 µM | > 100 µM | > 100 µM | > 100 µM | > 100 µM | > 100 µM | > 100 µM | > 100 µM |  |  |  |  |  |  |  |  |  |  | 
O=C(O)CCCc1ccccc1 | > 1000 µM | > 1000 µM | 363 µM and > 1000 µM | > 1000 µM | > 1000 µM | 348 µM and > 1000 µM | > 1000 µM | > 1000 µM | > 1000 µM | 322 µM and > 1000 µM | 235 µM and > 1000 µM | > 1000 µM | 292 µM and > 1000 µM | 456 µM and > 1000 µM | 19.5 µM | 79.2 µM | 522 µM and > 1000 µM | 215 µM and 28.5 µM | 333 µM and > 1000 µM | 
COc1cc(C(=O)O)c(-c2cc3c(cc2C=O)OCO3)c(OC)c1OC | > 10 µM | > 10 µM | > 10 µM | > 10 µM |  | > 10 µM | > 10 µM | > 10 µM | > 10 µM |  |  |  |  |  |  | > 10 µM |  |  |  | 
c1n[nH]cc1C12C3C4C5C3C1C5C42 (stereo not drawn) | > 100 µM | > 100 µM | > 100 µM | > 100 µM | > 100 µM | > 100 µM | > 100 µM | > 100 µM | > 100 µM |  |  |  |  |  |  | > 100 µM |  |  |  | 
CCN1C[C@]2(C)CC[C@H](OC)C34C5C[C@@H]6[C@@H](OC)C[C@@](OC)(C5[C@H]6OCc5ccccc5)C(C13)[C@H](OC(C)=O)[C@@H]42 (stereo partly drawn) | > 100 µM | > 100 µM | > 100 µM | > 100 µM | > 100 µM | > 100 µM | > 100 µM | > 100 µM | > 100 µM |  |  |  |  |  |  | > 100 µM |  |  |  | 
O=[N+]([O-])C(=C/c1cccc2ccccc12)/C(=C\c1cccc2ccccc12)[N+](=O)[O-] | > 58.6 µM | 7.03 µM | 4.25 µM | 6.12 µM | 12.3 µM | 7.67 µM | 19.1 µM | 9.03 µM | 4.5 µM |  |  |  |  |  |  | 6.05 µM |  |  |  | 
O=C1/C(=C/c2cccs2)NC(=S)N1CN1CCCCC1 | > 100 µM | > 100 µM | > 100 µM | > 100 µM | > 100 µM | > 100 µM | > 100 µM | > 100 µM | > 100 µM |  |  |  |  |  |  | > 100 µM |  |  |  | 
CCOC(=O)/C=C\C(C#N)(C#N)N=Cc1ccsc1 | 38.2 µM | 36.9 µM | 4.52 µM | 6.63 µM | 33.1 µM | 22 µM | 35.6 µM | 18.1 µM | 4.11 µM |  |  |  |  |  |  | 4.25 µM |  |  |  | 
Cc1cccc(CNc2ncnc3[nH]ncc23)c1 | > 100 µM | > 100 µM | > 100 µM | > 100 µM | > 100 µM | > 100 µM | > 100 µM | > 100 µM | > 100 µM |  |  |  |  |  |  | > 100 µM |  |  |  | 
FC(F)(F)c1cccnc1Sc1nc2ccccc2s1 | > 100 µM | > 100 µM | > 100 µM | > 100 µM | > 100 µM | > 100 µM |  | > 100 µM | > 100 µM |  |  |  |  |  |  | > 100 µM |  |  |  | 
c1cncc(CSc2ncnc3nc[nH]c23)c1 | > 100 µM | > 100 µM | > 100 µM | > 100 µM | > 100 µM | > 100 µM | > 100 µM | > 100 µM | > 100 µM |  |  |  |  |  |  |  |  |  |  | 
COc1ccc(NC/C=C/C(=C/COC(C)=O)OC(C)=O)cc1 | 33 µM | 5.18 µM | 3.87 µM | 3.14 µM | 3.38 µM | 6.52 µM | 28.2 µM | 2.71 µM | 3.49 µM |  |  |  |  |  |  | 0.829 µM |  |  |  | 
CCCCN(C)C(=O)C1=C(C)NC(C)=C(C(=O)N(C)CCCC)C1 | > 100 µM | > 100 µM | > 100 µM | > 100 µM | > 100 µM | > 100 µM | > 100 µM | > 100 µM | > 100 µM |  |  |  |  |  |  | > 100 µM |  |  |  | 
C=C[C@]1(O[Si](C)(C)C)C[C@@]2(C(=O)OCC)C(O)C(=O)N3CCc4cc(OC)c(OC)cc4[C@]312 (stereo partly drawn) | > 100 µM | > 100 µM | > 100 µM | > 100 µM | > 100 µM | > 100 µM | > 100 µM | > 100 µM | > 100 µM |  |  |  |  |  |  | > 100 µM |  |  |  | 
S=C(N/N=C/c1ccccn1)N1CCCCCC1 | 29.1 µM |  | > 100 µM | 96.8 µM | > 54.2 µM |  |  | 0.93 µM | > 100 µM |  |  |  |  |  |  | 0.491 µM |  |  |  | 
BrCc1ccc(CBr)c2c1-c1c(CBr)ccc3ccc(CBr)c-2c13 | > 100 µM | > 100 µM | > 100 µM | > 100 µM | > 100 µM | > 100 µM | > 100 µM | > 100 µM | > 100 µM |  |  |  |  |  |  | > 100 µM |  |  |  | 

Structure (SMILES) | TGI (A549 NSCLC) | TGI (HOP-62 NSCLC) | TGI (HOP-92 NSCLC) | TGI (MDA-MB-435) | TGI (OVCAR-5 ovarian) | TGI (SF-268 CNS) | TGI (SK-OV-3 ovarian) | TGI (SR leukemia) | TGI (SW-620 colon) | GI50 (A549 NSCLC) | GI50 (HOP-62 NSCLC) | GI50 (HOP-92 NSCLC) | GI50 (MDA-MB-435) | GI50 (OVCAR-5 ovarian) | GI50 (RPMI-8226 leukemia) | TGI (RPMI-8226 leukemia) | GI50 (SK-OV-3 ovarian) | GI50 (SR leukemia) | GI50 (SW-620 colon) | GI50 (SF-268 CNS)
COc1ccc(NC(=O)C(=O)Cc2nc3ccc(C(=O)c4ccccc4)cc3[nH]c2=O)c([N+](=O)[O-])c1 | > 100 µM | > 100 µM | 74.4 µM | 66.1 µM | > 100 µM | > 100 µM | > 100 µM | 51.1 µM | 79.8 µM |  |  |  |  |  |  |  |  |  |  | 
C[C@H](NC(=O)CNC(=O)CCCCCC(=O)NCC(=O)N[C@@H](C)C(=O)OCc1ccccc1)C(=O)OCc1ccccc1 | > 100 µM | > 100 µM | > 100 µM | > 100 µM | > 100 µM | > 100 µM | > 100 µM | > 100 µM | > 100 µM |  |  |  |  |  |  | > 100 µM |  |  |  | 
O=C1C=C(C2=C(C3=CC(=O)c4ccccc4C3=O)C(=O)c3ccccc3C2=O)C(=O)c2ccccc21 | 27 µM | 33.5 µM | 18 µM | 6.28 µM | 25.6 µM | 33.8 µM | 66.5 µM | > 100 µM | 20.5 µM |  |  |  |  |  |  | 12.2 µM |  |  |  | 
CCOC(=O)/C=C/C1(CCOC(C)=O)CCCCC1 | > 10 µM | > 10 µM | > 10 µM | > 10 µM | > 10 µM | > 10 µM | > 10 µM | > 10 µM | > 10 µM |  |  |  |  |  |  | > 10 µM |  |  |  | 
O=c1cc(CNC2CC3CCC2C3)[nH]c(=O)[nH]1 (stereo not drawn) | > 100 µM | > 100 µM |  | > 100 µM | > 100 µM | > 100 µM | > 100 µM | > 100 µM | > 100 µM |  |  |  |  |  |  | > 100 µM |  |  |  | 
O/N=C1/CCCc2nonc21 | > 100 µM | > 100 µM | > 100 µM | > 100 µM | > 100 µM | > 100 µM | > 100 µM | > 100 µM | > 100 µM |  |  |  |  |  |  | > 100 µM |  |  |  | 
O=S(=O)(O)c1ccc2cc(N=Nc3c(O)ccc4ccccc34)ccc2c1 | > 100 µM | > 100 µM | > 100 µM | > 100 µM | > 100 µM | > 100 µM | > 100 µM | > 100 µM | > 100 µM |  |  |  |  |  |  |  |  |  |  | 
C[C@H]1C[C@H]2[C@@H]3CCC4=CC(=O)C=C[C@]4(C)C3=CC[C@]2(C)[C@@]1(O)C(=O)CO | > 100 µM | > 100 µM | > 100 µM | > 100 µM | > 100 µM | > 100 µM | > 100 µM | > 100 µM |  |  |  |  |  |  |  | > 100 µM |  |  |  | 
Cc1ccc(/N=N/C(=NNC(=O)c2ccc(C)cc2)c2ccc(N(C)C)cc2)cc1 | 87.9 µM |  | 80.2 µM | 39.5 µM | > 100 µM | > 100 µM | 76.2 µM | 45.1 µM | > 100 µM |  |  |  |  |  |  | 70.5 µM |  |  |  | 
CC(=O)O[C@@H]1[C@H]2[C@@H](OC(=O)c3ccccc3)[C@@H](C)C[C@]2(O)[C@H](OC(C)=O)[C@@]2(C)[C@@H]3C[C@@](C)(OC(C)=O)C[C@@H](OC(C)=O)[C@@]3(OC(C)=O)C[C@@]12C |  | > 10 µM | > 10 µM | > 10 µM | > 10 µM | > 10 µM | > 10 µM | > 10 µM | > 10 µM |  |  |  |  |  |  |  |  |  |  | 
O=C(O)Cc1cccc2c(=O)c3cccc([N+](=O)[O-])c3[nH]c12 | > 100 µM | > 100 µM | > 100 µM | > 100 µM | > 100 µM |  | > 100 µM | > 100 µM | > 100 µM |  |  |  |  |  |  | > 100 µM |  |  |  | 
c1ccc(COC2C3COC(O3)C(OCc3ccccc3)C2OCc2ccccc2)cc1 (stereo not drawn) |  | > 100 µM | > 100 µM | > 100 µM | > 100 µM | > 100 µM | > 100 µM | 25.4 µM | > 100 µM |  |  |  |  |  |  | > 100 µM |  |  |  | 
Nc1c(Cl)cc(-c2nc3ccccc3s2)cc1Cl | > 100 µM | > 100 µM | > 100 µM | > 100 µM |  | > 100 µM | > 100 µM | > 100 µM | > 100 µM |  |  |  |  |  |  |  |  |  |  | 
CCC(=O)C(CCN1CCC(N2C(=O)C(CCC#N)c3ccccc32)CC1)(c1ccccc1)c1ccccc1 (stereo not drawn) | 31.7 µM | 32.2 µM |  | 17.6 µM | 67.7 µM | 34.5 µM | 37.9 µM | 10.2 µM | 24 µM |  |  |  |  |  |  | 21.8 µM |  |  |  | 
O=C1c2ccccc2C(=O)c2c1cc1c(c2[N+](=O)[O-])OCO1 | 21.9 µM | 5.19 µM | 3.75 µM | 9.58 µM | 8.74 µM | 7.73 µM |  | 1.55 µM | 11.5 µM | 4.94 µM | 1.74 µM | 1.27 µM | 2.91 µM | 2.39 µM | 0.267 µM | 0.916 µM |  | 0.242 µM | 0.68 µM | 1.46 µM
